Our source for the AC50 values is PubChem BioAssay AID504539 (Broad Institute, 2011).

The test system of the assay is Cell-based prion protein 5' UTR reporter, plate reader. Briefly: prion protein 5' UTR mRNA inhibitors – cell-based, plate reader, cherry-picked samples, dose response (AID 504539).

`Cc1cc(C(=O)CN2C(=O)c3ccccc3S2(=O)=O)c(C)n1C(C)C`: the concentration at half-maximal activity (AC50) (in general, the midpoint of the concentration-response curve, whichever way the signal moves) was 2160 nM.
The result for `Cc1ccc2nc3sc(C(=O)N4CCOCC4)c(N)c3cc2c1` reads 275 nM.
Consider `CCOC(=O)c1[nH]c2c(c1C)C(=O)CC(c1ccco1)C2` (configuration not stated), for which the AC50 is 360 nM.
With `CC(=O)OC1CC(OC2C(O)CC(OC3C(O)CC(OC4CCC5(C)C(CCC6C5CC(O)C5(C)C(C7=CC(=O)OC7)CCC65O)C4)OC3C)OC2C)OC(C)C1OC1OC(CO)C(O)C(O)C1O` (configuration not stated), the AC50 was 92 nM.
Under `COc1ccccc1NC(=O)c1oc2ccccc2c1NC(=O)c1cc(OC)c(OC)c(OC)c1` stands 537 nM; under `O=c1cc(-c2ccc(O)cc2)oc2ccc3ccccc3c12`, 629 nM.
Under `CC(=O)OC(C)(C)/C=C/C(=O)[C@](C)(O)[C@H]1[C@H](O)C[C@@]2(C)[C@@H]3CC=C4[C@H](C[C@H](O)C(=O)C4(C)C)[C@]3(C)C(=O)C[C@]12C` stands less than 38 nM; under `CC1CCCC=CC2CC(OC(=O)CN(C)C)CC2C(O)C=CC(=O)O1` (configuration not stated), 126 nM.
Under `CN(C)c1ccc(Nc2nc(N)c3ccccc3n2)cc1` stands 562 nM; under `CC1CCCN(c2ncnc3c2cnn3-c2ccc(Cl)cc2)C1` (configuration not stated), less than 38 nM.
`Cc1cc(C(=O)COC(=O)C2=COCCO2)c(C)n1-c1ccccc1`: the half-maximal activity concentration (AC50) is 1170 nM.
For `COC(=O)c1nn(-c2ccc3c(c2)CCN3C(C)=O)cc1O`, the half-maximal activity concentration (AC50) was 300 nM.
Under `Cc1ccc(C(=O)O/N=C(\N)c2ccccn2)c(C)c1` stands 46 nM; under `CN1CCN(c2ccc(-c3ccc4ccccc4n3)cc2)CC1`, 113 nM; under `CC(=O)O[C@H]1C[C@@H]2OC3C=C(C)CCC3(C)[C@@]1(C)[C@@]21CO1` (some centres not stated), 2070 nM.
Under `COc1cccc(/C=N/Nc2ccc(C(=O)O)cc2)c1O` stands 222 nM.
On to `CCC1(OC(=O)CN)C(=O)OCc2c1cc1n(c2=O)Cc2cc3ccccc3nc2-1` (configuration not stated), for which the half-maximal activity concentration (AC50) was 987 nM.
Under `S=C(Nc1ccccc1)Nc1ccc(OCc2ccc(Cl)cc2Cl)cc1` stands 355 nM; under `Cc1c(C(=O)OC2CCCC2)[nH]c2c1C(=O)CC(c1ccco1)C2` (configuration not stated), 791 nM; under `COc1cc(C2C(C#N)=C(N)Oc3cc(N)ccc32)cc(OC)c1OC` (configuration not stated), 614 nM.
Under `CCCC1=Nc2cc(C(=O)NCCCOCC)ccc2Sc2ccccc21` stands 434 nM; under `O=c1c(Cl)c(N2CCCCC2)cnn1-c1nc2ccccc2[nH]1`, 501 nM.
Under `Cc1ccc(C(=O)CN2C(=O)c3ccccc3S2(=O)=O)cc1` stands 823 nM.
Take `COc1cc(C2c3cc4c(cc3CC3COC(=O)N32)OCO4)cc(OC)c1OC` (configuration not stated): the AC50 was 861 nM.
The result for `COc1ccc(N=CC2=C(O)c3ccccc3C2=O)c(OC)c1` reads 1170 nM.
As to `C=CCn1c(C)cc(C2=NNC(=NCC)SC2)c1C`, the concentration at half-maximal activity (AC50) is less than 38 nM.
Under `COC(=O)Cc1ccc(NC(=O)c2ccc(C(C)(C)C)cc2)cc1` stands 414 nM; under `C[C@@H]1O[C@@H](O[C@@H]2C=C3CCC4C(CC[C@]5(C)[C@@H](c6ccc(=O)oc6)CC[C@]45O)[C@@]3(C)CC2)[C@H](O)[C@H](O)[C@H]1O` (some centres not stated), less than 38 nM; under `O=C(NCCc1ccccc1)c1ccc2c(c1)OCCO2`, 196 nM.
Under `CCOc1ccc(NC(=O)Nc2cccc(C(=O)O)c2)cc1` stands 136 nM.
Under `Cc1cc(C(=O)COC(=O)c2ccccc2O)c(C)n1CC1CCCO1` (configuration not stated) stands less than 38 nM.
Regarding `COc1cc(SC)ccc1C(=O)Nc1nc(C)cs1`, the half-maximal activity concentration (AC50) is 216 nM.
Under `CC1=C(N2CC2)C(=O)C(CO)=C(N2CC2)C1=O` stands 154 nM; under `COc1ccc(C(=O)O/N=C(\N)c2ccccn2)cc1`, 99 nM; under `CN(C)c1ccc(NC(=S)c2ccccn2)cc1`, 222 nM.
With `c1ccc(-c2ccc(-c3nc(-c4ccccn4)no3)cc2)cc1`, the half-maximal activity concentration (AC50) is 224 nM.
Under `COc1ccc(-c2cc(-c3cccs3)c(C#N)c(SCC(=O)NCc3ccco3)n2)cc1` stands 1530 nM; under `Nc1ccc2oc(-c3cccc4ccccc34)nc2c1`, 826 nM; under `Fc1ccc(-n2nnc(-c3cnc4ccccc4c3)n2)cc1`, 1040 nM.
The result for `C[C@]12CC[C@H](O)C[C@H]1CC[C@@H]1[C@@H]2CC[C@]2(C)[C@@H](C3=CC(=O)OC3)CC[C@]12O` reads 235 nM; that for `CC(=O)O[C@H]1C(=O)[C@@]2(C)[C@H]([C@H](OC(=O)c3ccccc3)[C@]3(O)C[C@H](OC(=O)[C@H](O)C(NC(=O)c4ccccc4)c4ccccc4)C(C)=C1C3(C)C)[C@]1(OC(C)=O)CO[C@@H]1C[C@@H]2O` (some centres not stated), 170 nM; that for `Cc1ccc(Nc2nc(-c3c(C)nc4ncccn34)cs2)cc1`, 168 nM.
The result for `CCOC(=O)COc1cccc2c(=O)n(CC(=O)NCc3ccc(F)cc3)ccc12` reads 1540 nM; that for `O=C(Nc1ccc([N+](=O)[O-])cc1)C(=O)Nc1cccc(C(=O)O)c1`, 164 nM.
With `Cc1ccc(-c2cc(C(=O)N/N=C/c3c(C)nn(-c4ccccc4)c3C)[nH]n2)cc1`, the concentration at half-maximal activity (AC50) was 3000 nM.
The result for `C=C1C(=O)O[C@@H]2C[C@@H](C)[C@@H]3C=CC(=O)[C@@]3(C)[C@@H](O)[C@H]12` reads 1580 nM; that for `O=C1c2cccc3cc([N+](=O)[O-])cc(c23)C(=O)N1CCN1CCCC1`, 521 nM; that for `COc1ccc(OC)c(C2C3=C(COC3=O)Nc3cc4c(cc32)OCO4)c1` (configuration not stated), 197 nM.
Under `CCC(C)Cn1c(O)cc2nn(-c3nc4ccccc4s3)c(=O)c-2c1C` (configuration not stated) stands 62 nM; under `C=CCN=C1NN=C(c2ccc3c(c2)OCCO3)CS1`, 411 nM.
The result for `C=CCOc1ccc(/C=C2\SC(=S)N(CCC(=O)O)C2=O)cc1` reads 963 nM.
For `CC(=O)c1sc2c(c1OC(=O)c1ccc(Cl)cc1Cl)c(=O)n(-c1ccccc1)c(=S)n2-c1ccccc1`, the AC50 was 452 nM.
Under `Cc1ccc(/C=C2\SC(=S)N(CCCC(=O)NNC(=O)c3ccccc3O)C2=O)cc1` stands 428 nM; under `COc1ccc(CC2NCC(O)C2OC(C)=O)cc1` (configuration not stated), 168 nM; under `COc1cccc(C(=O)O/N=C(\N)c2ccccn2)c1`, 448 nM.
Under `Cc1cccc(/C=N/Nc2ccc3ccccc3n2)c1` stands 456 nM; under `Cc1nn(-c2ccccc2Cl)c(Cl)c1/C=N/Nc1cccc(C(=O)O)c1`, 576 nM.
Under `COc1ccc(/C=N/NC(=O)c2cc3c(OC)ccc(OC)c3[nH]2)cc1O` stands 1340 nM.
Regarding `Cc1cccc2cc(C#N)c(SCC(=O)N3CC(=O)Nc4ccccc43)nc12`, the AC50 was 960 nM.
The result for `Cn1cc(/C=N/n2cnc3scc(-c4ccc(Cl)cc4)c3c2=O)c2ccccc21` reads 499 nM; that for `CCN(CC)c1ccc2c(cc1=O)[C@@H](NC)CCc1cc(OC)c(OC)c(OC)c1-2`, 634 nM; that for `CC1CC(C)(O)CC(C(O)CC2CC(=O)NC(=O)C2)C1=O` (configuration not stated), 493 nM.
The result for `COc1ccc2c(c1)sc1nc(-c3ccccc3)cn12` reads 556 nM; that for `C[C@H]1CCC/C=C/[C@@H]2C[C@H](O)C[C@H]2[C@@H](O)/C=C/C(=O)O1`, less than 38 nM; that for `CCCCCCN1C=CC(=C2C(=O)c3ccccc3C2=O)C=C1`, 369 nM.
The result for `COc1ccc(-c2nsc3c(N4CCCCC4)ncnc23)cc1` reads 1680 nM; that for `Cc1ccc(-c2cc3c(nn2)-c2ccccc2C3=O)cc1`, 575 nM.
